In US5073540A, “Composite binding site drugs” (Receptron, priority 1989, dated 1991):
Where a SMILES comes first, the peptide text is derived from it.

What was measured:
[1] = biological target: T1, purified human IR (Homo sapiens, UniProt P06213); assay: IR autophosphorylation (tyrosine kinase activity of purified insulin receptor); format: biochemical; settings: for EC50: insulin-induced, 95% confidence intervals printed: K^k 2.2-7.2 μM, D^k 0.3-2.2 μM; for inhibition of basal activity of IR: no insulin added
T1 construct: from tissue; host or cells: human placenta
Description: When peptide was used, it was added in 5.0 μl, the volume adjusted to 20 μl by adding buffer, and the mixture incubated (1 hr, 4° C.). After incubation, 10 μl of a solution containing 2.5 μCi ^32 P-labeled ATP (3,000 Ci/mmol; γ-labeled; Amersham), 50 mM HEPES, pH 7.6, 150 mM NaCl, 0.1% Triton X-100, 37.5 μM unlabeled ATP, 15 mM MgCl2, and 6 MnCl2 was added to a final volume of 30 μl. The mixture was then incubated for 30 min. at 24° C.
After incubation, 15 μl sample buffer was added, and the sample was boiled for 5 min., and run on 10% SDS-PAGE overnight. The gel was dried, and autoradiograms processed with an exposure time of 5-10 hr. For quantitative estimates the β-subunit band of IR and the IRKD bands were cut out and counted dry (Cerenkov) in a scintillation counter.

[2] = Peptide depletion (degradation or adsorption) during the experimental period, by HPLC and 125I-label; format: physicochemical; settings: HPLC and 125I-labeled peptide; concentrations above 0.1 μM

T1 sequence (P06213 28-758 limits assumed): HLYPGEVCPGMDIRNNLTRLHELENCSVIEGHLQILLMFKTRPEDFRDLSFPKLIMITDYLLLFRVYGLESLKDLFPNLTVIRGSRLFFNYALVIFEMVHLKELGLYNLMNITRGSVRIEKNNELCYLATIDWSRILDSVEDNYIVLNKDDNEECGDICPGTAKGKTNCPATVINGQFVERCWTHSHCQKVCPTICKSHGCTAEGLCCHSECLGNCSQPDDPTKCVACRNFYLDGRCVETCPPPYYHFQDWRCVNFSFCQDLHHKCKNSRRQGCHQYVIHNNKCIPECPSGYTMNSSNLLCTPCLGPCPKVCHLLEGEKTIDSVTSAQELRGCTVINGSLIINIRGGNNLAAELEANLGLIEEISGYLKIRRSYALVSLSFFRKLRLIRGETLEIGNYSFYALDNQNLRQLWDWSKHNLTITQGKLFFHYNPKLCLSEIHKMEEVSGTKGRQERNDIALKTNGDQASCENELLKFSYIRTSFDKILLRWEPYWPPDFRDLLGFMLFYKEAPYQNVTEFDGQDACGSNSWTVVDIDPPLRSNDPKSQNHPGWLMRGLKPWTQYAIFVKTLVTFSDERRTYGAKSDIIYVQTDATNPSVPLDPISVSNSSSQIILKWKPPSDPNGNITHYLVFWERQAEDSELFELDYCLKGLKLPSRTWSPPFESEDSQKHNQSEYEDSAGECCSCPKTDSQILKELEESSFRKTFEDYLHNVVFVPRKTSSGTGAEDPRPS
T1 sequence (P06213 763-1382 limits assumed): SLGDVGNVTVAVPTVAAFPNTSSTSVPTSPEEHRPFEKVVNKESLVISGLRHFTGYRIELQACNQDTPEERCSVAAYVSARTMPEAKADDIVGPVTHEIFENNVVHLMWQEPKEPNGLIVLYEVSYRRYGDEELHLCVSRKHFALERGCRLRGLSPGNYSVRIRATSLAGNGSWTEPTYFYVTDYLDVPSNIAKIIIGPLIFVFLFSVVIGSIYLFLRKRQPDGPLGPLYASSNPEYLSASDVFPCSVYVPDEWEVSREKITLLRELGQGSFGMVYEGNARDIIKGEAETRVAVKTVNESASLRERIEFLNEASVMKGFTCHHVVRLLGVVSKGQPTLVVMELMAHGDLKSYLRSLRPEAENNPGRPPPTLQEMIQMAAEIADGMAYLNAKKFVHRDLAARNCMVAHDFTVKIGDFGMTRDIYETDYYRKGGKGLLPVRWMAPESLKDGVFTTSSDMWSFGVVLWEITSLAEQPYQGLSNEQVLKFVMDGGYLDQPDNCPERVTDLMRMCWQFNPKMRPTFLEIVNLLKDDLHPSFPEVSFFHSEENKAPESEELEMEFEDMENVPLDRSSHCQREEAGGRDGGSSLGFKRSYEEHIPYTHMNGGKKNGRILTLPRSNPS

Compound	EC50 [1]	inhibition of basal activity of IR [1]	depletion (degradation or adsorption) during the experimental period [2]
CC[C@H](C)[C@H](NC(=O)[C@H](CCC(N)=O)NC(=O)[C@@H](NC(=O)[C@H](CCC(=O)O)NC(=O)[C@H](CCCNC(=N)N)NC(=O)[C@@H](N)CCC(=O)O)[C@@H](C)O)C(=O)N[C@@H](C)C(=O)N[C@@H](CCCCN)C(=O)NCC(=O)N[C@@H](CC(N)=O)C(=O)N[C@@H](CCC(=O)O)C(=O)N[C@@H](CCC(N)=O)C(=O)N[C@@H](CO)C(=O)N[C@@H](Cc1ccccc1)C(=O)N[C@@H](CCCNC(=N)N)C(=O)N[C@H](C(=O)N[C@@H](CC(=O)O)C(=O)N[C@@H](CC(C)C)C(=O)N[C@@H](CCCNC(=N)N)C(=O)N[C@H](C(=O)N[C@@H](CC(C)C)C(=O)N[C@@H](CC(C)C)C(=O)N[C@@H](CCCNC(=N)N)C(=O)N[C@@H](Cc1ccc(O)cc1)C(=O)N[C@@H](Cc1ccc(O)cc1)C(=O)O)[C@@H](C)O)C(C)C [D^k-(61-85), ERETQIAKGNEQSFRVDLRTLLRYY] (H-ERETQIAKGNEQSFRVDLRTLLRYY-OH)	1200 nM	24-40%	–
CC[C@H](C)[C@H](NC(=O)[C@H](CCC(N)=O)NC(=O)[C@@H](NC(=O)[C@H](CC(N)=O)NC(=O)[C@H](CCCNC(=N)N)NC(=O)[C@@H](N)CCC(=O)O)[C@@H](C)O)C(=O)N[C@@H](C)C(=O)N[C@@H](CCCCN)C(=O)NCC(=O)N[C@@H](CC(N)=O)C(=O)N[C@@H](CCC(=O)O)C(=O)N[C@@H](CCC(N)=O)C(=O)N[C@H](C(=O)N[C@@H](Cc1ccccc1)C(=O)N[C@@H](CCCNC(=N)N)C(=O)N[C@H](C(=O)N[C@@H](CC(N)=O)C(=O)N[C@@H](CC(C)C)C(=O)N[C@@H](CCCNC(=N)N)C(=O)N[C@H](C(=O)N[C@@H](C)C(=O)N[C@@H](CC(C)C)C(=O)N[C@@H](CCCNC(=N)N)C(=O)N[C@@H](Cc1ccc(O)cc1)C(=O)N[C@@H](Cc1ccc(O)cc1)C(=O)O)[C@@H](C)O)C(C)C)[C@@H](C)CC [K^k-(61-85)] (H-ERNTQIAKGNEQIFRVNLRTALRYY-OH)	4000 nM	24-40%	–
dynorphin A	–	–	No significant depletion
